{"source": "paper PMC5218480", "about": "(PLoS ONE, 2017)", "system": "MV-4-11 cells", "assay": "Gene expression microarray analysis (Affymetrix PrimeView) and GSEA", "type": "cell-based, human", "parameters": "RFU PODN (11730768_x_at) / Fold change /veh PODN (11730768_x_at) / RFU LINC00158 (11744669_a_at) / Fold change /veh LINC00158 (11744669_a_at) / RFU DUSP10 (11751237_a_at) / Fold change /veh DUSP10 (11751237_a_at) / RFU ID3 (11757404_x_at) / Fold change /veh ID3 (11757404_x_at) / RFU PLEKHG5 (11737974_s_at) / Fold change /veh PLEKHG5 (11737974_s_at) / RFU LRRC4B (11730491_at) / Fold change /veh LRRC4B (11730491_at) / RFU GIMAP4 (11747438_a_at) / Fold change /veh GIMAP4 (11747438_a_at) / RFU KRT8 (11758183_x_at) / Fold change /veh KRT8 (11758183_x_at) / RFU CNN1 (11734310_a_at) / Fold change /veh CNN1 (11734310_a_at) / RFU VPS37D (11726825_at) / Fold change /veh VPS37D (11726825_at) / RFU C10orf10 (11716522_x_at) / Fold change /veh C10orf10 (11716522_x_at) / RFU KIR2DL2 /// KIR2DL4 /// KIR2DL5A /// KIR2DL5B /// KIR2DS1 /// KIR2DS2 /// KIR2DS3 /// KIR2DS4 /// KIR3DL3 /// KIR3DL3 /// KIR3DS1 (11738374_at) / Fold change /veh KIR2DL2 /// KIR2DL4 /// KIR2DL5A /// KIR2DL5B /// KIR2DS1 /// KIR2DS2 /// KIR2DS3 /// KIR2DS4 /// KIR3DL3 /// KIR3DL3 /// KIR3DS1 (11738374_at) / RFU C1QL1 (11718748_at) / Fold change /veh C1QL1 (11718748_at) / RFU TMPRSS4 (11747572_a_at) / Fold change /veh TMPRSS4 (11747572_a_at) / RFU HAMP (11756126_x_at) / Fold change /veh HAMP (11756126_x_at) / RFU RNFT2 (11725882_a_at) / Fold change /veh RNFT2 (11725882_a_at) / RFU NR4A2 (11747474_a_at) / Fold change /veh NR4A2 (11747474_a_at) / RFU ABCC12 (11746883_a_at) / Fold change /veh ABCC12 (11746883_a_at) / RFU TMEM136 (11760407_x_at) / Fold change /veh TMEM136 (11760407_x_at) / RFU CLDN22 /// WWC2 (11732394_at) / Fold change /veh CLDN22 /// WWC2 (11732394_at) / RFU HLA-DPB1 (11760878_x_at) / Fold change /veh HLA-DPB1 (11760878_x_at) / RFU SPINT1 (11716480_a_at) / Fold change /veh SPINT1 (11716480_a_at) / RFU GAP43 (11754022_s_at) / Fold change /veh GAP43 (11754022_s_at) / RFU A4GNT (11735810_at) / Fold change /veh A4GNT (11735810_at) / RFU PRB3 (11715151_x_at) / Fold change /veh PRB3 (11715151_x_at) / RFU TUBB4B (11761932_at) / Fold change /veh TUBB4B (11761932_at) / RFU CAPN14 (11732068_a_at) / Fold change /veh CAPN14 (11732068_a_at) / RFU TMCC2 (11721928_a_at) / Fold change /veh TMCC2 (11721928_a_at) / RFU IRGQ (11745062_a_at) / Fold change /veh IRGQ (11745062_a_at) / RFU FAM174B (11720279_a_at) / Fold change /veh FAM174B (11720279_a_at) / RFU TMPRSS4 (11748680_a_at) / Fold change /veh TMPRSS4 (11748680_a_at) / RFU FAM212B (11763350_a_at) / Fold change /veh FAM212B (11763350_a_at) / RFU PLEKHG5 (11743358_a_at) / Fold change /veh PLEKHG5 (11743358_a_at) / RFU ZSCAN30 (11745921_a_at) / Fold change /veh ZSCAN30 (11745921_a_at) / RFU CMKLR1 (11741424_a_at) / Fold change /veh CMKLR1 (11741424_a_at) / RFU LOC101060620 /// MAPK8IP1 (11723275_at) / Fold change /veh LOC101060620 /// MAPK8IP1 (11723275_at) / RFU SPTSSB (11747773_x_at) / Fold change /veh SPTSSB (11747773_x_at) / RFU PRSS12 (11739890_at) / Fold change /veh PRSS12 (11739890_at) / RFU BIN1 (11741810_x_at) / Fold change /veh BIN1 (11741810_x_at) / RFU WNT11 (11732464_a_at) / Fold change /veh WNT11 (11732464_a_at) / RFU C10orf10 (11716521_a_at) / Fold change /veh C10orf10 (11716521_a_at) / RFU C5orf56 (11738089_at) / Fold change /veh C5orf56 (11738089_at) / RFU CYB561 (11721691_x_at) / Fold change /veh CYB561 (11721691_x_at) / RFU ANKRD19P (11752326_a_at) / Fold change /veh ANKRD19P (11752326_a_at) / RFU OR2T12 /// OR2T33 /// OR2T8 (11738714_s_at) / Fold change /veh OR2T12 /// OR2T33 /// OR2T8 (11738714_s_at) / RFU VCAN (11748164_a_at) / Fold change /veh VCAN (11748164_a_at) / RFU JSRP1 (11732532_at) / Fold change /veh JSRP1 (11732532_at) / RFU KRTAP10-11 (11738290_x_at) / Fold change /veh KRTAP10-11 (11738290_x_at) / RFU MYO3A (11730013_a_at) / Fold change /veh MYO3A (11730013_a_at) / RFU EBF3 (11725865_a_at) / Fold change /veh EBF3 (11725865_a_at) / RFU CAMK2N1 (11719241_x_at) / Fold change /veh CAMK2N1 (11719241_x_at) / RFU C5orf56 (11738088_a_at) / Fold change /veh C5orf56 (11738088_a_at) / RFU OLFML3 (11715873_a_at) / Fold change /veh OLFML3 (11715873_a_at) / RFU LOC100653217 /// NTM (11731650_a_at) / Fold change /veh LOC100653217 /// NTM (11731650_a_at) / RFU MAPK11 (11762145_a_at) / Fold change /veh MAPK11 (11762145_a_at) / RFU FIZ1 (11724087_x_at) / Fold change /veh FIZ1 (11724087_x_at) / RFU OASL (11726364_x_at) / Fold change /veh OASL (11726364_x_at) / RFU SOX15 (11748057_x_at) / Fold change /veh SOX15 (11748057_x_at) / RFU CD79A (11719716_a_at) / Fold change /veh CD79A (11719716_a_at) / RFU HIST1H1D (11736915_at) / Fold change /veh HIST1H1D (11736915_at) / RFU CASKIN2 (11723855_a_at) / Fold change /veh CASKIN2 (11723855_a_at) / RFU LOC730098 (11760151_x_at) / Fold change /veh LOC730098 (11760151_x_at) / RFU OR4N2 (11742367_at) / Fold change /veh OR4N2 (11742367_at) / RFU PRRT2 (11749266_a_at) / Fold change /veh PRRT2 (11749266_a_at) / RFU SNX32 (11753110_a_at) / Fold change /veh SNX32 (11753110_a_at) / RFU CDHR5 (11726645_a_at) / Fold change /veh CDHR5 (11726645_a_at) / RFU RCAN1 (11760418_a_at) / Fold change /veh RCAN1 (11760418_a_at) / RFU FAM167A (11723789_a_at) / Fold change /veh FAM167A (11723789_a_at) / RFU FAM26E (11764081_at) / Fold change /veh FAM26E (11764081_at) / RFU ISYNA1 (11749810_s_at) / Fold change /veh ISYNA1 (11749810_s_at) / RFU ACY1 (11761880_at) / Fold change /veh ACY1 (11761880_at) / RFU 11764098_at / Fold change /veh 11764098_at / RFU SAMD14 (11745864_x_at) / Fold change /veh SAMD14 (11745864_x_at) / RFU NPB (11741838_a_at) / Fold change /veh NPB (11741838_a_at) / RFU TMPRSS6 (11731388_a_at) / Fold change /veh TMPRSS6 (11731388_a_at) / RFU KRTAP10-2 (11738614_at) / Fold change /veh KRTAP10-2 (11738614_at) / RFU ARHGAP8 /// PRR5-ARHGAP8 (11727945_x_at) / Fold change /veh ARHGAP8 /// PRR5-ARHGAP8 (11727945_x_at) / RFU KRTAP5-7 /// NADSYN1 (11734609_at) / Fold change /veh KRTAP5-7 /// NADSYN1 (11734609_at) / RFU RASL12 (11751679_a_at) / Fold change /veh RASL12 (11751679_a_at) / RFU CDKN2B (11736163_a_at) / Fold change /veh CDKN2B (11736163_a_at) / RFU PRF1 (11729649_at) / Fold change /veh PRF1 (11729649_at) / RFU, ZNF638 /// ZNF638-IT1 / Fold change vs veh, ZNF638 /// ZNF638-IT1 / RFU, PANK3 / Fold change vs veh, PANK3 / RFU, SH3YL1 / Fold change vs veh, SH3YL1 / RFU, ZEB2 / Fold change vs veh, ZEB2 / RFU, NRIP1 / Fold change vs veh, NRIP1 / RFU, PTTG1IP / Fold change vs veh, PTTG1IP / RFU, CAPN2 / Fold change vs veh, CAPN2 / RFU, MED14 / Fold change vs veh, MED14 / RFU, SNORA58 / Fold change vs veh, SNORA58 / RFU, C1orf63 / Fold change vs veh, C1orf63 / RFU, LRRFIP1 / Fold change vs veh, LRRFIP1 / RFU, NDUFAF7 / Fold change vs veh, NDUFAF7 / RFU, SLC12A2 / Fold change vs veh, SLC12A2 / RFU, IBTK / Fold change vs veh, IBTK / RFU, ESF1 / Fold change vs veh, ESF1 / Fold change vs veh, TMEM50B / RFU, TAOK1 / Fold change vs veh, TAOK1 / RFU, ACBD3 / Fold change vs veh, ACBD3 / RFU, TMA16 / Fold change vs veh, TMA16 / RFU, RWDD3 / Fold change vs veh, RWDD3 / RFU, BCAT1 / Fold change vs veh, BCAT1 / RFU, EDEM3 / Fold change vs veh, EDEM3 / RFU, TMEM33 / Fold change vs veh, TMEM33 / RFU, WDR75 / Fold change vs veh, WDR75 / RFU, AHCTF1 / Fold change vs veh, AHCTF1 / RFU, TFRC / Fold change vs veh, TFRC / RFU, ZDHHC17 / Fold change vs veh, ZDHHC17 / RFU, NOM1 / Fold change vs veh, NOM1 / RFU, ARL8B / Fold change vs veh, ARL8B / RFU, ZBTB11 / Fold change vs veh, ZBTB11 / RFU, TAMM41 / Fold change vs veh, TAMM41 / RFU, KIAA1704 /// LOC100996395 / Fold change vs veh, KIAA1704 /// LOC100996395 / RFU, ING1 / Fold change vs veh, ING1 / RFU, TRMT61B / Fold change vs veh, TRMT61B / RFU, FUBP3 / Fold change vs veh, FUBP3 / RFU, TP53 / Fold change vs veh, TP53 / RFU, TNKS2 / Fold change vs veh, TNKS2 / RFU, ZFP14 / Fold change vs veh, ZFP14 / RFU, ACTR2 / Fold change vs veh, ACTR2 / RFU, PPP3R1 / Fold change vs veh, PPP3R1 / RFU, PIK3R1 / Fold change vs veh, PIK3R1 / RFU, HNRNPA1 / Fold change vs veh, HNRNPA1 / RFU, RNF170 / Fold change vs veh, RNF170 / RFU, ZNF28 / Fold change vs veh, ZNF28 / RFU, RNGTT / Fold change vs veh, RNGTT / RFU, OGT / Fold change vs veh, OGT / RFU, BRD1 / Fold change vs veh, BRD1 / RFU, MARS / Fold change vs veh, MARS / RFU, ZNF655 / Fold change vs veh, ZNF655 / RFU, FAHD1 / Fold change vs veh, FAHD1 / RFU, BDP1 / Fold change vs veh, BDP1 / RFU, LRRCC1 / Fold change vs veh, LRRCC1 / RFU, ARID1A / Fold change vs veh, ARID1A / RFU, ZNF146 / Fold change vs veh, ZNF146 / RFU, ZNF330 / Fold change vs veh, ZNF330 / RFU, GPN3 / Fold change vs veh, GPN3 / RFU, C9orf123 / Fold change vs veh, C9orf123 / RFU, N4BP2L2 / Fold change vs veh, N4BP2L2 / RFU, ARFIP1 / Fold change vs veh, ARFIP1 / RFU, FAM179B / Fold change vs veh, FAM179B / RFU, BCL10 / Fold change vs veh, BCL10 / RFU, UHRF1BP1L / Fold change vs veh, UHRF1BP1L / RFU, BET1 / Fold change vs veh, BET1 / RFU, CNOT2 / Fold change vs veh, CNOT2 / RFU, ZNF268 / Fold change vs veh, ZNF268 / Fold change vs veh, ZNF507 / RFU, DGCR2 / Fold change vs veh, DGCR2 / RFU, WDSUB1 / Fold change vs veh, WDSUB1 / Fold change vs veh, HSP90B1 /// MIR3652 / RFU, ADSS / Fold change vs veh, ADSS / RFU, GK / Fold change vs veh, GK / RFU, ZNF148 / Fold change vs veh, ZNF148 / RFU, TAF9 / Fold change vs veh, TAF9 / RFU, SLC1A5 / Fold change vs veh, SLC1A5 / RFU, SLMO2 / Fold change vs veh, SLMO2 / RFU, ABCC4 / Fold change vs veh, ABCC4 / RFU, LOC101060439 /// RAP1B / Fold change vs veh, LOC101060439 /// RAP1B / RFU, RFX7 / Fold change vs veh, RFX7 / RFU, GTPBP10 / Fold change vs veh, GTPBP10 / RFU, CNEP1R1 / Fold change vs veh, CNEP1R1 / RFU, BIVM-ERCC5 /// ERCC5 / Fold change vs veh, BIVM-ERCC5 /// ERCC5 / RFU, ILF3 / Fold change vs veh, ILF3 / RFU 11762660_at / Fold change /veh 11762660_at / RFU VCAN (11757783_s_at) / Fold change /veh VCAN (11757783_s_at) / RFU DDX43 (11728927_at) / Fold change /veh DDX43 (11728927_at) / RFU KRT8 (11758188_x_at) / Fold change /veh KRT8 (11758188_x_at) / RFU NKD1 (11759106_at) / Fold change /veh NKD1 (11759106_at) / RFU SRD5A1 (11742802_a_at) / Fold change /veh SRD5A1 (11742802_a_at) / RFU TPSAB1 /// TPSB2 (11721975_s_at) / Fold change /veh TPSAB1 /// TPSB2 (11721975_s_at) / RFU GSTM3 (11746129_a_at) / Fold change /veh GSTM3 (11746129_a_at) / RFU IL23R (11737362_x_at) / Fold change /veh IL23R (11737362_x_at) / RFU TMEM51 (11727254_a_at) / Fold change /veh TMEM51 (11727254_a_at) / RFU PIWIL2 (11732686_x_at) / Fold change /veh PIWIL2 (11732686_x_at) / RFU ORM1 (11744905_x_at) / Fold change /veh ORM1 (11744905_x_at) / RFU CCDC152 (11743942_at) / Fold change /veh CCDC152 (11743942_at) / RFU ECM1 (11717891_a_at) / Fold change /veh ECM1 (11717891_a_at) / RFU IL23R (11748794_a_at) / Fold change /veh IL23R (11748794_a_at) / RFU TNFAIP8L3 (11732012_x_at) / Fold change /veh TNFAIP8L3 (11732012_x_at) / RFU MBOAT4 (11741988_at) / Fold change /veh MBOAT4 (11741988_at) / RFU 11764193_at / Fold change /veh 11764193_at / RFU TMEM53 (11763286_at) / Fold change /veh TMEM53 (11763286_at) / RFU MAGEB2 (11727129_at) / Fold change /veh MAGEB2 (11727129_at) / RFU TMEM200A (11744735_a_at) / Fold change /veh TMEM200A (11744735_a_at) / RFU CCDC152 (11751479_a_at) / Fold change /veh CCDC152 (11751479_a_at) / RFU FAM211A (11726209_a_at) / Fold change /veh FAM211A (11726209_a_at) / RFU RGS16 (11746705_a_at) / Fold change /veh RGS16 (11746705_a_at) / RFU VCAN (11755009_s_at) / Fold change /veh VCAN (11755009_s_at) / RFU RHOB (11743442_s_at) / Fold change /veh RHOB (11743442_s_at) / RFU RGS16 (11720943_a_at) / Fold change /veh RGS16 (11720943_a_at) / RFU RGS16 (11720944_at) / Fold change /veh RGS16 (11720944_at) / RFU, VPS4B / Fold change vs veh, VPS4B / RFU, CREB1 / Fold change vs veh, CREB1 / RFU, DNAJC13 / Fold change vs veh, DNAJC13 / RFU, GNAQ / Fold change vs veh, GNAQ / RFU, CDK5R1 / Fold change vs veh, CDK5R1 / RFU, ZRANB3 / Fold change vs veh, ZRANB3 / RFU, CUL4A / Fold change vs veh, CUL4A / RFU, CCNY / Fold change vs veh, CCNY / RFU, UFL1 / Fold change vs veh, UFL1 / RFU, COG3 / Fold change vs veh, COG3 / RFU, DIAPH2 / Fold change vs veh, DIAPH2 / RFU, SKA2 / Fold change vs veh, SKA2 / RFU, AFF3 / Fold change vs veh, AFF3 / RFU, LMF1 / Fold change vs veh, LMF1 / RFU, IPO11 / Fold change vs veh, IPO11 / RFU, DFFB / Fold change vs veh, DFFB / RFU, FOXP1 / Fold change vs veh, FOXP1 / RFU, CARD8 / Fold change vs veh, CARD8 / RFU, STRN3 / Fold change vs veh, STRN3 / RFU, ADK / Fold change vs veh, ADK / RFU, RASSF2 / Fold change vs veh, RASSF2 / RFU, WIPF1 / Fold change vs veh, WIPF1 / RFU, LARP1B / Fold change vs veh, LARP1B / RFU, RASA1 / Fold change vs veh, RASA1 / RFU, RB1 / Fold change vs veh, RB1 / RFU, PPFIA1 / Fold change vs veh, PPFIA1 / RFU, MAT2A / Fold change vs veh, MAT2A / RFU, CCT5 / Fold change vs veh, CCT5 / RFU, WDR92 / Fold change vs veh, WDR92 / RFU, CUX1 / Fold change vs veh, CUX1 / RFU, TTC7A / Fold change vs veh, TTC7A / RFU, TMEM135 / Fold change vs veh, TMEM135 / RFU, DEPTOR / Fold change vs veh, DEPTOR / RFU, CPM / Fold change vs veh, CPM / RFU, DNAJB6 / Fold change vs veh, DNAJB6 / RFU, CACNA2D3 / Fold change vs veh, CACNA2D3 / RFU, DTX4 / Fold change vs veh, DTX4 / RFU, TFCP2 / Fold change vs veh, TFCP2 / RFU, GMCL1 /// GMCL1P1 / Fold change vs veh, GMCL1 /// GMCL1P1 / RFU, AEBP2 / Fold change vs veh, AEBP2 / RFU, SNHG1 /// SNORD22 /// SNORD25 /// SNORD26 /// SNORD27 /// SNORD28 /// SNORD29 /// SNORD31 / Fold change vs veh, SNHG1 /// SNORD22 /// SNORD25 /// SNORD26 /// SNORD27 /// SNORD28 /// SNORD29 /// SNORD31 / Fold change (Aza/veh), C12orf56 (ProbeSet 11735607_a_at) / Fold change (ACY-1035/veh), C12orf56 (ProbeSet 11735607_a_at) / Fold change (Aza/veh), FGFR1OP (ProbeSet 11751329_s_at) / Fold change (ACY-1035/veh), FGFR1OP (ProbeSet 11751329_s_at) / Fold change (Aza/veh), VPS36 (ProbeSet 11739960_a_at) / Fold change (ACY-1035/veh), VPS36 (ProbeSet 11739960_a_at) / RFU SYPL1 (11715823_x_at) / Fold change /veh SYPL1 (11715823_x_at) / RFU IGFBP7 (11715501_s_at) / Fold change /veh IGFBP7 (11715501_s_at) / RFU REEP3 (11722064_at) / Fold change /veh REEP3 (11722064_at) / RFU IGLL1 (11728026_x_at) / Fold change /veh IGLL1 (11728026_x_at): dose or concentration left out as unconfirmed", "conditions": "ProbeSet 11741070_a_at; LIST B", "data": [{"smiles": "Nc1ncn([C@@H]2O[C@H](CO)[C@@H](O)[C@H]2O)c(=O)n1", "note": "[azacitidine]", "values": [{"measurement": "RFU, ZNF146", "result": 2051.58, "unit": "RFU"}]}]}
